Test results taken from US20070142298A1, “Tetrapeptide regulating blood glucose level in diabetes mellitus” (SANKT-PETERBURGSKAYA OBSCHESTVENNAYA ORGANIZATSIYA …, priority 2003, published 2007).
Residues, ends and D or L forms follow the SMILES beside them.

What was measured:
Format in all cases: in vivo
[1] = system: rats with alloxan diabetes; assay: Course of alloxan diabetes in rats, treatment variant (Example 2)
Procedure: After estimation of glucose concentration in the blood all the animals were divided at random into 2 groups. Then all the animals were exposed to single intravenous administration 1 ml of alloxan solution (“Spofa”) in dose 35 mg/kg. In 15 days control animals were administered once a day intraperitoneally with 0.3 ml 0.9% NaCl solution, rats of the main group were administered with LysGlu-Asp-Trp-NH2 in dose 3 μg (in 0.3 ml of 0.9% NaCl solution) per rat during 11 days.

[2] = system: rats with alloxan diabetes; assay: Course of alloxan diabetes in rats, prophylaxis and treatment variant (Example 3)
Procedure: The experiment was carried out on 15 white mongrel male rats with the average body weight 375±35 g. The animals were divided randomly into 2 groups. Control animals were administered once a day intravenously with 0.3 ml of 0.9% NaCl solution, while the main group animals were administered with LysGlu-Asp-Trp-NH2 tetrapeptide in dose of 3 μg (in 0.3 ml of 0.9% NaCl solution) per rat during 7 days. After that all the animals were subject to single intravenous administration of 1 ml of alloxan solution (“Spofa”) in dose 35 mg/kg. Lys-Glu-Asp-Trp-NH2 tetrapeptide had been administered during 3 days following alloxan administration. After that […] were subject to the second Lys-Glu-Asp-Trp-NH2 tetrapeptide course from 18 day till day 28 (total 11 days) in the same dose.

[3] = system: rats with alloxan diabetes; assay: Tetrapeptide in different doses on the course of alloxan diabetes in rats (Example 4); conditions: for Glucose concentration in blood, initial level: before alloxan; for Glucose concentration in blood, after tetrapeptide administration, day 1 / Glucose concentration in blood, after tetrapeptide administration, day 4 / Glucose concentration in blood, after tetrapeptide administration, day 7 / Glucose concentration in blood, after tetrapeptide administration, day 14 / Glucose concentration in blood, after tetrapeptide administration, day 21: 7 days; for Decrease of glucose level: dose 10 μg
Procedure: The study was performed on 23 white mongrel male rats weighing on average […]. All the animals were subject to single intravenous administration of 1 ml of alloxan (“Spofa”) solution in dose of […].
Then the animals were divided at random into 3 groups. Control animals were intraperitoneally administered with 0.3 ml of 0.9% NaCl solution once a day. Rats of the second and third group were administered with tetrapeptide Lys-Glu-Asp-Trp-NH2 in dose of 1 μg (in 0.1 ml of 0.9% NaCl solution) and 10 μg (in 1.0 ml of 0.9% NaCl solution) per rat during 7 days.

[4] = system: rats with alloxan diabetes; assay: Insulin level in blood of rats with alloxan diabetes (Example 5)
Procedure: The experiment was held on 18 white mongrel male rats weighing on average 375±35 g. After the estimation of the blood glucose level all the animals were divided at random into 2 groups. Then all the animals were subjected to single intravenous injection with 1 ml of alloxan solution (“Spofa”) in dose of 35 mg/kg. 15 days later control animals were daily intraperitonealy administered with 0.3 ml of 0.9% NaCl solution, rats of the main group—with tetrapeptide Lys-Glu-Asp-Trp-NH2 in dose of 3 μg (in 0.3 ml of 0.9% NaCl) per rat during 11 days.

[5] = system: rats with alloxan diabetes; assay: Glucose tolerance test (sugar curve) in alloxan diabetes rats (Example 6); conditions: 44th day after course completion
Procedure: The study was conducted on 13 male rats, enrolled in the previous tests (treatment variants—44 days after completion of tetrapeptide Lys-Glu-Asp-Trp-NH2 administration). 7 healthy rats with the same body weight constituted a separate group. All the animals were administered intravenously with 1 ml of 2% glucose solution, after that glucose concentration in their blood was estimated.

[6] = system: rats with alloxan diabetes; assay: Insulin effect on blood glucose level in alloxan diabetes rats after tetrapeptide (Example 7)
Procedure: The study was conducted on 13 male rats, enrolled in the previous trial (treatment variant—28 days after completion of Lys-Glu-Asp-Trp-NH2 tetrapeptide administration). 8 healthy rats of the similar body weight constituted a separate group. All the animals were administered intravenously with insulin (0.3 units), and glucose concentration in their blood was estimated hereafter.

[7] = system: patients with diabetes mellitus; assay: Clinical application in patients with diabetes mellitus (Example 8)
Procedure: The investigation was carried out in 36 patients aged from 16 to 83 years (7 men, 29 women). In 23 patients there was diagnosed type 1 diabetes, in 13 patients—type 2 diabetes. The disease duration varied from 1 year to 30 years. 32 patients received insulin. The majority of the patients suffering diabetes mellitus entered the hospital decompensated. Blood glucose level in these patients on an empty stomach oscillated from […]; the glycosylated haemoglobin—from 7.8 to 12.7%. All the patients were prescribed a rigid diet. All the patients were stratified randomly into 2 groups, with respect to age, sex, duration and stage of the disease (Table 7). Alongside with standard method of treatment 16 patients were prescribed Lys-Glu-Asp-Trp-NH2 tetrapeptide in dose of 10 μg (in 1 ml of 0.9% NaCl solution) intramuscularly once a day for 10 days. 4 patients suffering type 2 diabetes mellitus were prescribed together with standard treatment course Lys-Glu-Asp-Trp-NH2 tetrapeptide in dose of 100 μg (1 tablet) twice a day before meals during 10 days. Patients of the control group were administered with 1 ml of 0.9% of NaCl solution as a placebo following the same scheme.

[8] = 3 μg per rat i.p. daily, 11 days
[9] = before alloxan and before treatment
[10] = 16 insulin-treated patients, 10 μg i.m. once a day, 10 days

## NCCCC[C@H](N)C(=O)N[C@@H](CCC(=O)O)C(=O)N[C@@H](CC(=O)O)C(=O)N[C@@H](Cc1c[nH]c2ccccc12)C(N)=O [Tetrapeptide Lys-Glu-Asp-Trp-NH2, lysyl-glutamyl-aspartyl-tryptophane amid] (H-KEDW-NH2)
[1]; [8]
  Glucose concentration in the blood, 8 days since the onset of tetrapeptide administration: 254.5 ± 16.2 mg %
  Glucose concentration in the blood, upon completion of peptide administration, day 1: 222.5 ± 10.3 mg %
  Glucose concentration in the blood, upon completion of peptide administration, day 9: 183.9 ± 10.5 mg %
  Glucose concentration in the blood, upon completion of peptide administration, day 18: 236.7 ± 10.3 mg %
  Glucose concentration in the blood, upon completion of peptide administration, day 28: 221.5 ± 11.2 mg %
  Glucose concentration in the blood, upon completion of peptide administration, day 44: 210.8 ± 9.3 mg %
  Glucose concentration in the blood, upon completion of peptide administration, day 58: 198.9 mg %
[1]; [9]
  Glucose concentration in the blood, initial level: 81.1 ± 3.8 mg %
[1]; before start of tetrapeptide
  Glucose concentration in the blood, 15 days after alloxan administration: 333.6 ± 12.4 mg %
[1]; vs control, alloxan diabetes animals
  Lethality decrease: two-fold lethality decrease
[1]; vs control, range 30-47.7%
  Decrease of the blood glucose level throughout the whole study: 38.4%
[2]; 2nd course (from 18th till 28th day)
  Glucose concentration in blood, after alloxan administration, day 28: 77.3 ± 1.3 mg %
[2]; 28th, 33rd, 40th day
  Blood glucose level after the second course: complete normalisation of the blood glucose level
[2]; after 1st course
  Glucose concentration in blood, after alloxan administration, day 5: 247.3 ± 17.2 mg %
  Glucose concentration in blood, after alloxan administration, day 14: 261.5 ± 39.5 mg %
[2]; after 2nd course
  Glucose concentration in blood, after alloxan administration, day 33: 90.7 ± 5.2 mg %
  Glucose concentration in blood, after alloxan administration, day 40: 107.7 ± 6.4 mg %
[2]; before treatment
  Glucose concentration in blood, initial level: 76.8 ± 1.1 mg %
[2]; during 2nd course (from 18th till 28th day)
  Glucose concentration in blood, after alloxan administration, day 21: 159.0 ± 32.6 mg %
[2]; healthy rats before alloxan, 3 μg per rat daily
  Glucose concentration in blood, 7 days from the onset of tetrapeptide administration (1 course): 94.0 ± 0.8 mg %
[2]; healthy rats, 7 days, before alloxan
  Effect on blood glucose level of healthy animals: did not lead to the decrease of blood glucose level
[3]; 1 mkg group
  Glucose concentration in blood, after alloxan administration, day 7: 245.6 ± 12.3 mg %
  Glucose concentration in blood, after alloxan administration, day 14: 261.7 ± 12.3 mg %
  Glucose concentration in blood, initial level: 80.6 ± 2.8 mg %
[3]; 1 mkg per rat
  Glucose concentration in blood, after tetrapeptide administration, day 1: 228.3 ± 10.7 mg %
  Glucose concentration in blood, after tetrapeptide administration, day 4: 244.4 ± 12.2 mg %
  Glucose concentration in blood, after tetrapeptide administration, day 7: 269.4 ± 8.6 mg %
  Glucose concentration in blood, after tetrapeptide administration, day 14: 268.8 ± 12.4 mg %
  Glucose concentration in blood, after tetrapeptide administration, day 21: 272.5 ± 9.9 mg %
[3]; 10 mkg group
  Glucose concentration in blood, after alloxan administration, day 7: 247.2 ± 14.0 mg %
  Glucose concentration in blood, after alloxan administration, day 14: 252.2 ± 7.9 mg %
  Glucose concentration in blood, initial level: 83.9 ± 3.4 mg %
[3]; 10 mkg per rat
  Glucose concentration in blood, after tetrapeptide administration, day 1: 193.3 ± 6.7 mg %
  Glucose concentration in blood, after tetrapeptide administration, day 4: 212.2 ± 7.3 mg %
  Glucose concentration in blood, after tetrapeptide administration, day 7: 205.6 ± 8.4 mg %
  Glucose concentration in blood, after tetrapeptide administration, day 14: 240.0 ± 7.9 mg %
  Glucose concentration in blood, after tetrapeptide administration, day 21: 248.3 ± 13.5 mg %
[3]; day 1
  Decrease of glucose level: 30%
[3]; day 7
  Decrease of glucose level: 26%
[4]; [8]
  Insulin content in blood, 8 days since the onset of tetrapeptide administration: 3.1 ± 1.1 mkIU/ml
  Insulin content in blood, after the completion of tetrapeptide administration, day 1: 3.6 ± 0.7 mkIU/ml
  Insulin content in blood, after the completion of tetrapeptide administration, day 9: 3.2 ± 0.5 mkIU/ml
  Insulin content in blood, after the completion of tetrapeptide administration, day 18: 4.3 ± 0.5 mkIU/ml
  Insulin content in blood, after the completion of tetrapeptide administration, day 28: 4.1 ± 0.6 mkIU/ml
  Insulin content in blood, after the completion of tetrapeptide administration, day 44: 3.9 ± 1.1 mkIU/ml
[4]; 8 days of administration, higher than control
  Insulin content in the blood relative to control group: 3.9 fold
[4]; after course completion, no insulin in controls
  Amount of insulin in the blood at following estimations: 13-18%
[4]; [9]
  Insulin content in blood, initial level: 23.8 ± 2.8 mkIU/ml
[4]; before start of tetrapeptide
  Insulin content in blood, 15 days after alloxan administration: 1.5 ± 0.4 mkIU/ml
[5]
  Glucose tolerance test, 5 min after glucose administration: 301.2 ± 10.5
  Glucose tolerance test, 30 min after glucose administration: 205.1 ± 11.8
  Glucose tolerance test, 60 min after glucose administration: 201.5 ± 13.2
  Glucose tolerance test, 120 min after glucose administration: 164.2 ± 12.8
[5]; before i.v. 1 ml of 2% glucose
  Glucose tolerance test, initial level: 210.8 ± 9.3
[6]; 28th day after course completion, before insulin
  Glucose concentration in blood, initial level: 221.5 ± 11.2 mg %
[6]; 28th day after course completion, insulin 0.3 units i.v.
  Glucose concentration in blood, 30 minutes after insulin administration: 123.6 ± 8.3 mg %
[6]; alloxan diabetes animals
  Decrease of the glucose level after insulin administration as compared to the control group: nearly two-fold decrease of the glucose level
[7]; 8 patients out of 16 treated with insulin
  Reduction of the insulin daily dose, on average: 8 units
[7]; [10]
  Decreased insulin dose necessary to achieve compensation (number of patients): 8
  Increased insulin dose necessary to achieve compensation (number of patients): 2
  The same insulin dose necessary to achieve compensation (number of patients): 6
[7]; Patient K.
  Decrease of daily insulin dose as compared to the initial level: 26 units
[7]; Patient K., at discharge
  Coagulogram indices: pronounced improvement in coagulogram indices
[7]; Patient K., type 2, 10 μg i.m. 10 days, 18th day, 10 μmol/l on admission
  Blood glucose level on an empty stomach at discharge: 5.9 mM
[7]; Patient K., 82 units on admission
  Daily dose of insulin at discharge: 56 units
[7]; Patient L.
  Blood glucose level after completion of the treatment course: remained within the norm
  Dose of diabeton: reduced two-fold
[7]; Patient L., type 2, oral 100 μg twice a day with 2 diabeton tablets, 11 μmol/l on admission
  Glucose level on an empty stomach on the second day: 6 mM
[7]; Patient M.
  Decrease of daily insulin dose as compared to the initial level: 8 units
[7]; Patient M., 40 units on admission
  Daily norm of insulin at discharge: 32 units
[7]; tetrapeptide in tablets
  Compensation in patients treated with oral anti-diabetic medicine: full compensation
[7]; tetrapeptide in tablets, 100 μg twice a day, 10 days
  Reduction of the dose of insulin: 25 units
[7]; tetrapeptide in tablets, patients on oral anti-diabetic medicine
  Reduction of dose of oral anti-diabetic preparations: reduced practically two-fold
